Laboratory results as given in ChEMBL document CHEMBL1201862, “PubChem BioAssay data set” (2004).
The source made the active and inactive calls.

Key:
Cytochrome P450 2D6 = Cytochrome P450 2D6 (Homo sapiens, UniProt P10635);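 also: CYP2D6 member of a cytochrome P450 panel assay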
[1] = target: T1, Ubiquitin-conjugating enzyme E2 N (Homo sapiens, UniProt P61088); format: functional;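 also: Dose-response confirmation in a TR-FRET assay detecting UBC13-driven polyubiquitin chain formation, inhibition measured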
T1 sequence (P61088 whole entry): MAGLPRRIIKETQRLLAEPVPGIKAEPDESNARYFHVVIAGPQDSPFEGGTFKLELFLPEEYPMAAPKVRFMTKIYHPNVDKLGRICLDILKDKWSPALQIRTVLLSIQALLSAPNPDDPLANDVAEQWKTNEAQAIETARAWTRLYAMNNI

[2] = target: T2, Polyadenylate-binding protein 1 (Homo sapiens, UniProt P11940); assay: PABP1 MLLE–PAM2 binding inhibitor potency, dose response, biochemical, fluorescence polarization, FITC-PAM2 peptide (AID 602259); format: functional; settings: read-out: IC50_Mean
T2 sequence (P11940 whole entry): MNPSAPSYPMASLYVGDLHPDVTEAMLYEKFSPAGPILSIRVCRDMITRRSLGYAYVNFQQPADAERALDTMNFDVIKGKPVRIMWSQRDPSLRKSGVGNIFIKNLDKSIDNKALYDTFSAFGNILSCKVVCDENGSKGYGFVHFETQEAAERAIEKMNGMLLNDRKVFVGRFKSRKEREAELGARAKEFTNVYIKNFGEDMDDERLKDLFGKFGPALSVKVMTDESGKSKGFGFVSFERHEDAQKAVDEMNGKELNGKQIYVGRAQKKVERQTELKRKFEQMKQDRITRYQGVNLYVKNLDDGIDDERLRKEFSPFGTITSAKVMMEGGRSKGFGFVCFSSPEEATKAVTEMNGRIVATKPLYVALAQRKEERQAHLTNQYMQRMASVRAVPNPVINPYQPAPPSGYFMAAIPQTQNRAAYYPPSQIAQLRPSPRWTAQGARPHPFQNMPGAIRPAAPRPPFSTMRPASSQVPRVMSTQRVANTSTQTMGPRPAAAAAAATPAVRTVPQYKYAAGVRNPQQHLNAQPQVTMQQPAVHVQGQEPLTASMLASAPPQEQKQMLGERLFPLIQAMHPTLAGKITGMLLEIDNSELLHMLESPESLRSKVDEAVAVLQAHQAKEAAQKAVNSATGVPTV

[3] = target: T2, Polyadenylate-binding protein 1; assay: PABP1 MLLE–PAM2 interaction inhibitors, dose response, miRNA deadenylation inhibitor project, biochemical, fluorescence polarization, Cy5-PAM2 peptide, secondary (AID 602260); format: functional; settings: read-out: IC50_Mean
[4] = target: T3, Heat shock factor protein 1 (Mus musculus, UniProt P38532); assay: HSF1 potentiators in luciferase reporter cells, confirmation, cell-based, NIH3T3, luminescence, dose retest (AID 435004); format: functional;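 also: stress induced by proteasome inhibitor MG132 added 30 min after compound; luciferase reporter driven by HSF1 response element in NIH3T3 cells; actives raise luminescence as potentiators of the MG132 stress response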
T3 sequence (P38532 whole entry): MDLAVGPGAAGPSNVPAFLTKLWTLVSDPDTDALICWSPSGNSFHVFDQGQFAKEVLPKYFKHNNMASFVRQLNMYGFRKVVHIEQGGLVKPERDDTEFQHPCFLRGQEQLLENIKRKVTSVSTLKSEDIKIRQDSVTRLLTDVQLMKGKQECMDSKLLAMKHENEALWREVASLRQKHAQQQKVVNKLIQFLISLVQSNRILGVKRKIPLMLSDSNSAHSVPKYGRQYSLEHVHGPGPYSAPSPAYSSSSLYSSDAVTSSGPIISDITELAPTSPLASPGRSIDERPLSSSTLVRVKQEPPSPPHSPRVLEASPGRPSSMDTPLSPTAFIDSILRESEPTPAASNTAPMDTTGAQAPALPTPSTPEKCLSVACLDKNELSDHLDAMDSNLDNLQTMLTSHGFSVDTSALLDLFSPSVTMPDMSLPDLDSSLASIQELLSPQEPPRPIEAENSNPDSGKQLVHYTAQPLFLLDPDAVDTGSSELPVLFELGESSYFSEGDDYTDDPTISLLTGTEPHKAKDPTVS

[5] = HepG2 cell cytotoxicity, dose response, cytotoxicity control for Shn3 inhibitor project, CellTiter-Glo, cherry-picked (AID 624134); format: functional, cell-based
[6] = HEp-2 cell cytotoxicity, dose response, cytotoxicity control for RSV inhibitor project, HTS (AID 2410); format: functional; settings: human respiratory syncytial virus
[7] = Shn3 3'UTR reporter inhibitors, dose response, cell-based, Clone20 osteoblasts, firefly luciferase, cherry-picked (AID 624132); format: functional;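 also: firefly luciferase luminescence from reporter carrying the Shn3 3'UTR in osteoblasts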
[8] = control 3'UTR Renilla luciferase suppression, dose response, counter-screen for Shn3 inhibitor project, cell-based, Clone20-Shn3RL, cherry-picked (AID 624133); format: functional
Vero = assay: cells; format: functional; settings: Chlorocebus sabaeus
cells [9] = format: functional, cell-based
cells [10] = format: functional, cell-based; remark: listed apart in the source
Cytochrome P450 3A4 = Cytochrome P450 3A4 (Homo sapiens, UniProt P08684);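 also: CYP3A4 tested as one member of a cytochrome P450 panel screen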
Chain of Cytochrome P450 3A4 (P08684 whole entry): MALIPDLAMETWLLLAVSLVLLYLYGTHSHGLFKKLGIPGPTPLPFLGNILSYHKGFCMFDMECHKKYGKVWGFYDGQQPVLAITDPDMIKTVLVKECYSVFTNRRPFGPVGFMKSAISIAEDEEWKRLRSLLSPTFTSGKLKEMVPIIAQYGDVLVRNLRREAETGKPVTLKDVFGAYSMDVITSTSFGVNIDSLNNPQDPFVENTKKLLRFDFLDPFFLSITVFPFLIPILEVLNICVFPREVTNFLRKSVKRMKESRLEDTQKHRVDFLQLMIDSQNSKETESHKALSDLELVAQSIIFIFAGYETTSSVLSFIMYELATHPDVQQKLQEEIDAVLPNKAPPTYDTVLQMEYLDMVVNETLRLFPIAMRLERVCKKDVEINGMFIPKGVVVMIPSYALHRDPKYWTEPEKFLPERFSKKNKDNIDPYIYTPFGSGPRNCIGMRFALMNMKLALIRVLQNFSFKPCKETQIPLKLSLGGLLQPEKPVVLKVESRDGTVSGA

Chain of Cytochrome P450 2D6 (P10635 whole entry): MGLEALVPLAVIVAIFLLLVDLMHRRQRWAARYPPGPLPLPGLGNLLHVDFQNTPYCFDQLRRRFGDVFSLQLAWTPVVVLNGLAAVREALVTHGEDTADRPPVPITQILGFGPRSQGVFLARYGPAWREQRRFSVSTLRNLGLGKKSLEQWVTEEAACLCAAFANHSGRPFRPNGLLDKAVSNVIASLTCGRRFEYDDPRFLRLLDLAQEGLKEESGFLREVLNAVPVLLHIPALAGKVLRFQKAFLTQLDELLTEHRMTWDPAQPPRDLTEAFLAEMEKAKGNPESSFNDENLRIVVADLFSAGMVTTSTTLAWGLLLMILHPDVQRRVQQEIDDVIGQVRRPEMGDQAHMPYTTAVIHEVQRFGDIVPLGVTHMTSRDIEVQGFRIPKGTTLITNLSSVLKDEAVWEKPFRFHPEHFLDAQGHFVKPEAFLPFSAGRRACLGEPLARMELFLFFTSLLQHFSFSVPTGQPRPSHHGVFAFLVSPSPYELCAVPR

CCN1CCN(S(=O)(=O)c2ccc(Cl)nc2)CC1
AC50 (Cytochrome P450 2D6): 12.6 µM (inconclusive)

CCOC(=O)N1CCN(C(=O)c2ccc3c(c2)N(Cc2ccccc2)CCS3)CC1
IC50 [1]: > 20 µM (inactive)

CC1=NCCc2c1[nH]c1cc(O)ccc21
AC50 (Cytochrome P450 2D6): 7.94 µM (inconclusive)

COc1ccc(C(=S)N2CCN(c3ccccc3Cl)CC2)cc1OC
IC50 [2]: > 66 µM (inactive) | IC50 [3]: > 66 µM (inactive)

CSc1nccc(Nc2ccccc2)c1C#N
IC50 [1]: > 20 µM (inactive)

CSc1ccccc1-n1nnnc1SCC(=O)NCc1cccs1
EC50 [4]: > 260 µM (inactive)

Cn1c(/C=C/c2ccc(Cl)cc2Cl)c([N+](=O)[O-])c(=O)n(C)c1=O
AC50 [5]: 64.4 µM (active) | CC50 [6]: 37.5 µM (active) | AC50 [7]: 6.87 µM (active) | AC50 [8]: 8.75 µM (active) | CC50 (Vero): 20.5 µM (active)

COc1cccc(Cn2c(=O)cnc3cnc(OCc4ccccc4)nc32)c1
AC50 (Cytochrome P450 2D6): 39.8 µM (inconclusive)

Cn1c(Cn2nnc3ccccc32)nnc1SCC(=O)c1ccccc1F
EC50 [4]: > 260 µM (inactive)

CN(C)CCCN(C(=O)c1ccco1)c1nc2ccc(Cl)cc2s1
CC50 (Vero): > 25 µM (active)

CC1=CC(=O)C=C(C)C1=NOC(=O)/C=C\c1ccccc1
EC50 [4]: > 260 µM (inactive)

CSc1nc(C)cc(Nc2ccc(O)c(CN3CCCCC3)c2)n1
AC50 (Cytochrome P450 2D6): 3.16 µM (inconclusive)

O=[N+]([O-])c1cccc(-c2ccc3nnc(SCc4ccccn4)n3n2)c1
EC50 [4]: > 260 µM (inactive)

Cc1ccccc1-n1c(=O)n(Cc2ccc(C(=O)O)cc2)c(=O)c2[nH]cnc21
EC50 (cells [9]): > 350 µM (not active) | EC50 (cells [10]): > 350 µM (not active)

COc1nccc(C(F)(F)F)c1C(=O)NC(=O)Nc1ccccc1
EC50 (cells [9]): > 350 µM (not active) | EC50 (cells [10]): > 350 µM (not active)

N#Cc1sc2nc(N3CCCCC3)c3c(c2c1N)CCCC3
CC50 (Vero): > 25 µM (active)

Cc1cnc(CNc2nc(-c3ccccc3Cl)nc3ccccc23)cn1
AC50 (Cytochrome P450 3A4): 7.94 µM (inconclusive) | AC50 (Cytochrome P450 2D6): 25.1 µM (inconclusive)

CCCCCCC1NC(C(=O)O)CS1 (stereo not drawn)
IC50 [2]: > 66 µM (inactive) | IC50 [3]: > 66 µM (inactive)

Cc1nnc(SCc2cccc(Cl)c2)n(N)c1=O
EC50 (cells [9]): > 350 µM (not active) | EC50 (cells [10]): > 350 µM (not active)

O=C(Nc1ccc2c(c1)CCCN2C(=O)c1ccccc1)c1ccccc1Br
CC50 [6]: 10.5 µM (active) | CC50 (Vero): > 25 µM (active)

CCOC(=O)c1c(C)sc2c1N(C(=O)CN(CC)CC)c1ccccc1S2
EC50 [4]: > 260 µM (inactive)

CC(C)c1ccc2oc(=O)cc(CN3CCOCC3)c2c1
EC50 (cells [9]): > 350 µM (not active) | EC50 (cells [10]): > 350 µM (not active)

O=C(CCCN1C(=O)CCC1=O)Nc1ccccc1F
IC50 [2]: > 66 µM (inactive) | IC50 [3]: > 66 µM (inactive)

Cc1cccn2c(=O)c3cc(C(=O)NC4CCCC4)c(=N)n(Cc4ccc(F)cc4)c3nc12
CC50 (Vero): > 25 µM (active)

Cc1cccc(N(C(=O)c2snc(C(N)=O)c2N)C(C(=O)NC2CCCC2)c2ccc(C)o2)c1 (stereo not drawn)
IC50 [1]: > 20 µM (inactive)
